# Marks after values point to notes of the source that are not given here.
# Assays:
# Acetylcholinesterase = target: T1, Acetylcholinesterase (Homo sapiens, UniProt P22303); test: NovaScreen assay; format: biochemical; conditions: read-out: Inhibition, 10 μM XL-647
# T1 construct: NovaScreen
# Src = target: T2, Src (Homo sapiens, UniProt P12931); test: Chemiluminescent kinase assay; format: biochemical; conditions: ATP at Km
# T2 construct: His (N); purchased Upstate Biotech
# PDGFRβ = PDGFRβ (Homo sapiens, UniProt P09619); test: Cellular autophosphorylation assay; format: cell-based
# Chain of PDGFRβ (P09619 33-1106, species assumed): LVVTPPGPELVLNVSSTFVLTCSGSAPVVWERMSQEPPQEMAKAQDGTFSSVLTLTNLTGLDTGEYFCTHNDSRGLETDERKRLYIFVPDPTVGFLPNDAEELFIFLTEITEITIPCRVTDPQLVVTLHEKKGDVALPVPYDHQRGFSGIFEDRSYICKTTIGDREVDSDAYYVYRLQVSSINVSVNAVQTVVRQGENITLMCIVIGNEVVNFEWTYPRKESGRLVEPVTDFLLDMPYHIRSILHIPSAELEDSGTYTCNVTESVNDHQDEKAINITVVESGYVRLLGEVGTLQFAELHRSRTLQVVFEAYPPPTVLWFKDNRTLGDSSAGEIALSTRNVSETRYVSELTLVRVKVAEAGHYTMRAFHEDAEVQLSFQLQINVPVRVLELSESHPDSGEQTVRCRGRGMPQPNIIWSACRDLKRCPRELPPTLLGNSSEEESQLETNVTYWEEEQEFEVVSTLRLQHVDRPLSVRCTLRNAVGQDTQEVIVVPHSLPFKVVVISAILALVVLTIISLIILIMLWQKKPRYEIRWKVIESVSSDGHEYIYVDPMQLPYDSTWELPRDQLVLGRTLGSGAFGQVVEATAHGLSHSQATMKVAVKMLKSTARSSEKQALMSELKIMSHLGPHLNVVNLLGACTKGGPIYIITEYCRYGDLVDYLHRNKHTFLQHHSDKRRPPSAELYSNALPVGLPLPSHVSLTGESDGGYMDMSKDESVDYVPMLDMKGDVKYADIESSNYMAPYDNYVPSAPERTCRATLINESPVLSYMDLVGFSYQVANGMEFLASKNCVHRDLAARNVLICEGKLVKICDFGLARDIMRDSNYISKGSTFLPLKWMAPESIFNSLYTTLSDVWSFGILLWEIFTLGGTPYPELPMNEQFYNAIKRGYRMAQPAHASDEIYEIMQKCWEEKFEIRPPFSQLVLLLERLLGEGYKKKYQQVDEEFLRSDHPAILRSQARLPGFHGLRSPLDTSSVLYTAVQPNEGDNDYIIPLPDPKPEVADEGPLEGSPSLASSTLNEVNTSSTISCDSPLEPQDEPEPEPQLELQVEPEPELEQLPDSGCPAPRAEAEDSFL
# Histamine, H2 = target: T3, Histamine, H2 (Homo sapiens, UniProt P25021); test: NovaScreen assay; format: binding; conditions: read-out: Inhibition, 10 μM XL-647
# T3 construct: NovaScreen
# T3 sequence (P25021 whole entry): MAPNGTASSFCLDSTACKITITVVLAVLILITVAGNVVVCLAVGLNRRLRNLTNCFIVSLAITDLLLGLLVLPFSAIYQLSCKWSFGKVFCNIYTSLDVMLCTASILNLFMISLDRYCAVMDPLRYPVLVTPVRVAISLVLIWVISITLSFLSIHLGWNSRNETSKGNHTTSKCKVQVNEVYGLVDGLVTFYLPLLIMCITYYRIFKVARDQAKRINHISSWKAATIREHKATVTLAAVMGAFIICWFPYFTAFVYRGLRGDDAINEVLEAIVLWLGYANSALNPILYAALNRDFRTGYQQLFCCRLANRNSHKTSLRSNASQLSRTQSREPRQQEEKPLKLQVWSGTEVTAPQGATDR
# [1] = target: T4, Platelet Activating Factor, PAF (Homo sapiens, UniProt P25105); test: NovaScreen assay; format: binding; conditions: read-out: Inhibition, 10 μM XL-647
# T4 construct: NovaScreen
# T4 sequence (P25105 whole entry): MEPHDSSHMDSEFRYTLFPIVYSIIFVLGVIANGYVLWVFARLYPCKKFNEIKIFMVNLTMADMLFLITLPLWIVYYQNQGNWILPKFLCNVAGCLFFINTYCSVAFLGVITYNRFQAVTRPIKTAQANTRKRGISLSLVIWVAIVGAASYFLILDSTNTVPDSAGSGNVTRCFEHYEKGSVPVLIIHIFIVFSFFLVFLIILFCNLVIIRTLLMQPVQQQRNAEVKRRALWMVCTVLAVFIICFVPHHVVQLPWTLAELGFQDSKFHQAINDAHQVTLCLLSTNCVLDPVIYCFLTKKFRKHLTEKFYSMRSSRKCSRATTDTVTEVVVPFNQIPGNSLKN
# EGFR WT (pTet-On/Lx-1) = EGFR WT (pTet-On/Lx-1) (Homo sapiens, UniProt P00533); test: EGFR phosphorylation ELISA in transfected Lx-1 cells
# From the text: (§1) Lx-1 cells were used because they lack background EGFR activity. A clone corresponding to the longest EGFR isoform (Genbank accession no. NM_005228.3/NP_005219.2 #21-176, Upstate Biotechnology) was used as a template to produce two mutant EGFR genes (coding for L858R and L861Q) by site-directed mutagenesis. The WT and the two sequence-verified mutants were transferred to a COOH-terminal Flag-tagged retroviral cytomegalovirus promoter-driven mammalian expression vector. The two Tet-On expression vectors, EGFR WT (Tet-On) and EGFRvIII (Tet-On), which were COOH-terminally Flag tagged, were generously provided by Dr. Abhijit Guha (University of Toronto, Toronto, Ontario, Canada).
# (§2) Transient transfections of Lx-1 cells were done using Lipofectamine 2000 (Invitrogen) according to the manufacturer's protocol. For transfections of the WT, L858R, and L861Q constructs, 1 μg plasmid DNA was used for each transfection (each well of a 12-well plate). […]
# (§3) For the EGFR phosphorylation ELISA, Reacti-Bind streptavidin-coated plates (Pierce) were coated with 2 μg/mL biotin-conjugated anti-Flag antibody (Sigma). […] Horseradish peroxidase activity was determined by reading the plates in a Victor2 plate reader following addition of the ELISA Femto substrate.
# EGFR L858R (pCMV/Lx-1) = EGFR L858R (pCMV/Lx-1) (Homo sapiens, UniProt P00533, L858R); test: as above
# Chain of EGFR L858R (pCMV/Lx-1) (P00533 25-1210 L858R): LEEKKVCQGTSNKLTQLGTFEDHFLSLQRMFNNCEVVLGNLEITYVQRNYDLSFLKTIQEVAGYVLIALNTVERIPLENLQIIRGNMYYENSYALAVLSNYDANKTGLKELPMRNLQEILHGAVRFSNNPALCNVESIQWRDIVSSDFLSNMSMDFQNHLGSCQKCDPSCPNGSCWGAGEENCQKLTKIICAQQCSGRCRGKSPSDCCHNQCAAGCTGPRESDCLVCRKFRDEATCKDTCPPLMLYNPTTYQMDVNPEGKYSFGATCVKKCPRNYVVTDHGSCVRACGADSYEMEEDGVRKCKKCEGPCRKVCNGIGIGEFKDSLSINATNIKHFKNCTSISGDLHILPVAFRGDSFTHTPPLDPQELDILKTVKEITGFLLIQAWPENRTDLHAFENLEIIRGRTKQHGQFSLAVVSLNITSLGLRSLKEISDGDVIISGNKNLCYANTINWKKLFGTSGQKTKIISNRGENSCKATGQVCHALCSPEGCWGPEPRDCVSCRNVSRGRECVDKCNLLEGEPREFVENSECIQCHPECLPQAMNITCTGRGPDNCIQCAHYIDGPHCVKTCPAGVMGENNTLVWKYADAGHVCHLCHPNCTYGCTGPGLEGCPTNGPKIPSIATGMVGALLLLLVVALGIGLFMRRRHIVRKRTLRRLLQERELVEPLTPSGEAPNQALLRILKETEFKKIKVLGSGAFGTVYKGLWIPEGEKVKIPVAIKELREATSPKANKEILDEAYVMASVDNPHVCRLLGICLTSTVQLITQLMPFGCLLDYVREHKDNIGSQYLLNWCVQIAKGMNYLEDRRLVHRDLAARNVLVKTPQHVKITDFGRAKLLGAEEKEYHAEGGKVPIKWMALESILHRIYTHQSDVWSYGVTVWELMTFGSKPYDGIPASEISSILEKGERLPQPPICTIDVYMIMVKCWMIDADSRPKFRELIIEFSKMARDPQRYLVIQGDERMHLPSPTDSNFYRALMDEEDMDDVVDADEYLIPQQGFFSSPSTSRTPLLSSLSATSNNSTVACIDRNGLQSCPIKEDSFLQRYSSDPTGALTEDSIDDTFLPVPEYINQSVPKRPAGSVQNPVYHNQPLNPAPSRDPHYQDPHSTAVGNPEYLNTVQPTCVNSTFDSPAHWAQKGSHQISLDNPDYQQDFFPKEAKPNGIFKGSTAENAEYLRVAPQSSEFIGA
# From the text: as §1, §2, §3
# [2] = system: subjects with relapsed or recurrent NSCLC; test: Clinical Study XL-647-203 (Phase 2, relapsed or recurrent NSCLC); format: in vivo, human; conditions: n=41
# From the text: Study XL-647-203: Subjects (n=41) with relapsed or recurrent NSCLC (Stage IIIB or IV) with documented progressive disease after benefit from single agent treatment with erlotinib or gefitinib or with a known EGFR T790M mutation were enrolled.
# wt EGFR (A431) = wt EGFR (A431) (Homo sapiens, UniProt P00533); test: Cell-based EGFR autophosphorylation assay in A431 cells; conditions: read-out: IC50, EGFR phosphorylation
# Procedure: A431 contains overexpressed wt human EGFR.
# A431 and MDA-MB-231 cell lines were maintained and propagated as monolayer cultures in DMEM (Mediatech) containing L-glutamine supplemented with 10% heat-inactivated fetal bovine serum (Hyclone), 100 units/mL penicillin G, 100 μg/mL streptomycin (1% penicillin/streptomycin, Mediatech), and 1% nonessential amino acids (Mediatech) at 37° C. in a humidified 5% CO2 incubator.
# A431 cells were seeded at 5×10^4 per well in 96-well microtiter plates (3904 Costar, VWR) and incubated in fully supplemented DMEM for 16 h after which growth medium was replaced with serum-free DMEM and the cells were incubated for an additional 24 h. […] After treatment, cell monolayers were washed with cold PBS and immediately lysed with cold lysis buffer (50 mmol/L Tris-HCl (pH 8.0), 150 mmol/L NaCl, 10% glycerol, 1% NP40, 0.1% SDS, 0.5% sodium deoxycholate, 1 mmol/L EDTA, 50 mmol/L NaF, 1 mmol/L sodium pyrophosphate, 1 mmol/L sodium orthovanadate, 2 mmol/L phenylmethylsulfonyl fluoride, 10 μg/mL aprotinin, 5 μg/mL leupeptin, 5 μg/mL pepstatin). […] Horseradish peroxidase activity was determined by reading the plates in a Victor2 plate reader following addition of the ELISA Femto substrate (Pierce).
# in vivo = test: in vivo; set-up: species or system mice, rats, dogs, and monkeys
# Procedure: The nonclinical Pharmacokinetics (PK) of XL-647 was studied in mice, rats, dogs, and monkeys. Animals were dosed either once or daily over several days, as described in Table 21 and 22 below. A summary of results can also be found in Tables 21 and 22 below. […] Mean tmax values were approximately 4 to 8 hours, and plasma terminal half-lives ranged from 9.41 to 20.9 hours.
# Bradykinin, BK2 = target: T5, Bradykinin, BK2 (Homo sapiens, UniProt P30411); test: NovaScreen assay; format: binding; conditions: read-out: Inhibition, 10 μM XL-647
# T5 construct: NovaScreen
# T5 sequence (P30411 whole entry): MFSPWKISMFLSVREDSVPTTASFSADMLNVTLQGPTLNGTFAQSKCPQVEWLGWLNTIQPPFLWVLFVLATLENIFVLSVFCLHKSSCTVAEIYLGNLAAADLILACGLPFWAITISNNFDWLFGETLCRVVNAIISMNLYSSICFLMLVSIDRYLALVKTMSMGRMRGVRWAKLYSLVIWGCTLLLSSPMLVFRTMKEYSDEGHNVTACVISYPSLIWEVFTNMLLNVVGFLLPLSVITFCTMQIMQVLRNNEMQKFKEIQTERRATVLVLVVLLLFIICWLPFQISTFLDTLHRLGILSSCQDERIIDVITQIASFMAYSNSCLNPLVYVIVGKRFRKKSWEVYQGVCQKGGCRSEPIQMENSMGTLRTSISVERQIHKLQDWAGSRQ
# KDR = KDR (Homo sapiens, UniProt P35968); test: Mechanism of action study / Ki determination; format: biochemical; set-up: residues D807-V1356 of human KDR, Proqinase; purchased Proqinase
# Chain of KDR (P35968 807-1356): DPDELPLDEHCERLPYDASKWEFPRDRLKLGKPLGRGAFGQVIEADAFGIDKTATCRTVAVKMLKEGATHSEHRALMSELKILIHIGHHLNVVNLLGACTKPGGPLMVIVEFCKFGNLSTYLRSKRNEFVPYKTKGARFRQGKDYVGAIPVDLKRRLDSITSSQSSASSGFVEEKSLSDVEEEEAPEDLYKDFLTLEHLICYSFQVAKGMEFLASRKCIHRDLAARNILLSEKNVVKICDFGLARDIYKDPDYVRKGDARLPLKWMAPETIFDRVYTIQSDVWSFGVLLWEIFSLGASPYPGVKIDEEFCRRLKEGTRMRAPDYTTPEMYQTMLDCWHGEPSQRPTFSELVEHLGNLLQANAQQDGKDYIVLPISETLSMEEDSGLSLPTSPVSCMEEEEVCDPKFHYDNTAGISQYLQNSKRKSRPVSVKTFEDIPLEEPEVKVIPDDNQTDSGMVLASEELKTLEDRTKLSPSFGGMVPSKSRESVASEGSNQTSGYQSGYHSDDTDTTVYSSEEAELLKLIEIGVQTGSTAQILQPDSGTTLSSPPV
# Procedure: Enzymatic activity was measured by standard methods after dilution of the enzyme-inhibitor complex.
# [3] = system: Adrenergic, Beta, Non-selective; test: NovaScreen assay; format: binding
# Serotonin, Non-selective = test: NovaScreen assay; format: binding
# [4] = human
# Leukotriene D4, LTD4 = target: T6, Leukotriene D4, LTD4 (Homo sapiens, UniProt Q9Y271); test: NovaScreen assay; format: binding; conditions: read-out: Inhibition, 10 μM XL-647
# T6 construct: NovaScreen
# T6 sequence (Q9Y271 whole entry): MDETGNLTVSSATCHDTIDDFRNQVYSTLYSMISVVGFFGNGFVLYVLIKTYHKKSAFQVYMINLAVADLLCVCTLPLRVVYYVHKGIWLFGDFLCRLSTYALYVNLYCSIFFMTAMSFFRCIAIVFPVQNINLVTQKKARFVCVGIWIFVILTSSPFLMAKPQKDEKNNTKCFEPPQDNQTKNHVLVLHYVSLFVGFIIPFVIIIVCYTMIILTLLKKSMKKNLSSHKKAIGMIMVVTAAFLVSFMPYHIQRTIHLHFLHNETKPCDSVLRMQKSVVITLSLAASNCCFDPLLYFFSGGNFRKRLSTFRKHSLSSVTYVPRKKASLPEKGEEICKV
# [5] = target: T7, Angiotensin II, AT1 (Human) (Homo sapiens, UniProt P30556); test: NovaScreen assay; format: binding; conditions: read-out: Inhibition, 10 μM XL-647
# T7 construct: NovaScreen
# p-Y-VEGFR2/KDR = target: T8, p-Y-VEGFR2/KDR (Mus musculus, UniProt P35918); test: In vivo receptor phosphorylation, murine lung; conditions: read-out: Estimated IC50 (plasma concentration)
# T8 construct: from tissue; host or cells: murine lung
# Glutamate, AMPA Site = test: NovaScreen assay; format: binding
# Opiate, Non-selective = test: NovaScreen assay; format: binding
# [6] = system: Glutamate, NMDA Agonist Site; test: NovaScreen assay; format: binding
# Phospho AKT Ser473 = test: Immunohistochemical analysis of phosphorylation in H1975 xenografts; format: in vivo, mouse; conditions: 14-day dosing
# Procedure: For immunohistochemical analysis of H1975, MDA-MB-231 and other xenografts, tumors were excised after euthanasia and fixed in zinc fixative (BD Biosciences) for 48 h before being processed into paraffin blocks. Serial sections at 5 μm were obtained from the area of largest possible surface for each tumor and stained using standard methods. The following antibodies were used: Ki67 (SP6; Labvision), CD31 (MECA.32; BD Biosciences), pERK^Thr202/Tyr204 (phospho-p44/42 mitogen-activated protein kinase; Cell Signaling Technology), pAKT^Ser473 (Cell Signaling Technology), and pEGFR^Tyr1068 (Cell Signaling Technology). For immunofluorescent staining, sections were then incubated with Alexa 594-conjugated goat anti-rabbit secondary antibody (Invitrogen) and mounted in Fluorescent Mounting Medium (DAKO) containing 4′,6-diamidino-2-phenylindole (Molecular Probes) as a nuclear counterstain. Fluorescent staining was visualized using a Zeiss Axiolmager and digitally captured using a Zeiss high-resolution camera coupled to AxioVision image analysis software. Two to three nonoverlapping representative fields were captured at ×200 or ×400 magnification depending on histologic readout and quantified using the integrated morphometric analysis functions in Metamorph software (Universal Imaging Corp.). Apoptotic cells were detected using terminal deoxynucleotidyl transferase-mediated dUTP nick end labeling in situ cell death detection kit according to the manufacturer's instructions (Roche Diagnostics GmbH).
# Results are presented as mean±SD or SE as indicated for each graph or table. For IC50 comparison in the A431 cell viability experiment, two sample Student's t tests were applied to determine P values for each IC50 pair assuming that the random fluctuations of replicates around the dose-response curve are distributed [log]normally with the individual replicates used as the ‘sample size’ for the t test (nine point dose response done in triplicate). For statistical analysis of immunohistochemical results from in vivo studies, two-tailed Student's t test analysis and Bonferroni correction were done to identify significant differences compared with vehicle control group (multiple use of a single vehicle control group) with a cumulative minimal requirement of P<0.05.
# T1 sequence (P22303 32-614, species assumed): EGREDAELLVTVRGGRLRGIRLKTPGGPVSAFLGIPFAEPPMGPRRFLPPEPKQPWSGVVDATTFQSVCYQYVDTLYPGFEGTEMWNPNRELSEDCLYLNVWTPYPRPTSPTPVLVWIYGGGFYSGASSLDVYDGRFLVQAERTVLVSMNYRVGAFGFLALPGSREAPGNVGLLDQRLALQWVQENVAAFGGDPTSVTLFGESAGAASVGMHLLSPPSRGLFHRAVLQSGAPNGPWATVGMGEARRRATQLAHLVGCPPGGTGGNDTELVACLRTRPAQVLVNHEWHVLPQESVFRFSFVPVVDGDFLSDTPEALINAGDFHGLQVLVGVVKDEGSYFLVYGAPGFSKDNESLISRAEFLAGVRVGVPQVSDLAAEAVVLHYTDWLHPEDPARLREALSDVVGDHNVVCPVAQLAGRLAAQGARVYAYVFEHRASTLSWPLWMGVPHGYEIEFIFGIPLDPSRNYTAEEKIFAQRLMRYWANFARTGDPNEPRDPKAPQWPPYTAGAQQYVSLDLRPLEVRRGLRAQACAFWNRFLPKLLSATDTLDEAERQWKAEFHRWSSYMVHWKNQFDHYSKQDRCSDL
smiles,measurement,setting,value
"COc1cc2c(Nc3ccc(Cl)c(Cl)c3F)ncnc2cc1OC[C@@H]1C[C@@H]2CN(C)C[C@@H]2C1 [XL-647, N-(3,4-dichloro-2-fluorophenyl)-7-({[(3aR,5r,6aS)-2-methyloctahydrocyclopenta[c]pyrrol-5-yl]methyl}oxy)-6-(methyloxy)quinazolin-4-amine]",inhibition at 10 µM,Acetylcholinesterase,49.4%
same,IC50,Src,10.3 ± 2 nM
same,IC50,PDGFRβ,> 1200 nM
same,inhibition at 10 µM,"Histamine, H2",45.7%
same,inhibition at 10 µM,[1],11.7%
same,IC50,EGFR WT (pTet-On/Lx-1),5 nM
same,IC50,EGFR L858R (pCMV/Lx-1),5 nM
same,subjects with PR,[2],one
same,subjects with SD as best response,[2],19 subjects
same,IC50,wt EGFR (A431),1 nM
same,accumulation in plasma,in vivo,< 2 fold
same,"dose proportionality of AUC, in words",in vivo,approximately dose proportionally over lower dose ranges
same,bioavailability,"in vivo; dog, po",63 to 74%
same,Tmax,"in vivo; mouse, rat, dog, monkey",4 to 8 h
same,half-life,"in vivo; mouse, rat, dog, monkey",9.41 to 20.9 h
same,volumes of distribution,"in vivo; mouse, rat, dog, monkey, iv",> 18 L/kg
same,"oral bioavailability, in words",in vivo; po,"orally bioavailable in mice, rats and dogs"
same,inhibition at 10 µM,"Bradykinin, BK2",48.8%
same,ATP-Competitive,KDR,Yes
same,Ki,KDR,0.6 nM
same,Reversible,KDR,Yes
same,"Inhibition, 10 μM XL-647",[3],18.01%
same,"Inhibition, 10 μM XL-647","Serotonin, Non-selective",24.52%
same,protein bound,[4],93-99%
same,inhibition at 10 µM,"Leukotriene D4, LTD4",-11.9%
same,inhibition at 10 µM,[5],6.85%
same,IC50,p-Y-VEGFR2/KDR,1200 nM
same,"Inhibition, 10 μM XL-647","Glutamate, AMPA Site",10.79%
same,"Inhibition, 10 μM XL-647","Opiate, Non-selective",39.73%
same,"Inhibition, 10 μM XL-647",[6],−1.66%
same,Phospho AKT Ser473 % Cells,Phospho AKT Ser473; 10 mg/kg,19 ± 2.1%
same,Phospho AKT Ser473 % Reduction,Phospho AKT Ser473; 10 mg/kg,53.6^a %
same,Phospho AKT Ser473 % Cells,Phospho AKT Ser473; 30 mg/kg,12 ± 1.9%
same,Phospho AKT Ser473 % Reduction,Phospho AKT Ser473; 30 mg/kg,72.4^a %
same,Phospho AKT Ser473 % Cells,Phospho AKT Ser473; 100 mg/kg,11 ± 1.9%
same,Phospho AKT Ser473 % Reduction,Phospho AKT Ser473; 100 mg/kg,74.4^a %

# Source: patent US9364479B2, “Use of a receptor-type kinase modulator for treating polycystic kidney disease” (SYMPHONY EVOLUTION, INC., priority 2010, dated 2016)
